Source: PubChem BioAssay (NCI)
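Test compounds were applied to cells in 96-well plates for 48 hours at 5 doses. Here, GI50 denotes the concentration required for 50% inhibition of growth. The concentration for full growth arrest is given as TGI.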

Experiments:
Experiment in all cases: inhibition of tumour cell growth, NCI panel, 48 h
NCI-H226 lung = tested on: NCI-H226 lung
NCI-H23 lung = tested on: NCI-H23 lung
SK-OV-3 ovarian = tested on: SK-OV-3 ovarian
U251 CNS = tested on: U251 CNS
UACC-257 melanoma = tested on: UACC-257 melanoma
EKVX NSCLC = tested on: EKVX NSCLC
A549 NSCLC = tested on: A549 NSCLC
UACC-62 melanoma = tested on: UACC-62 melanoma
SF-295 CNS = tested on: SF-295 CNS
HL-60(TB) leukemia = tested on: HL-60(TB) leukemia
NCI/ADR-RES ovarian = tested on: NCI/ADR-RES ovarian
LOX IMVI melanoma = tested on: LOX IMVI melanoma
NCI-H522 lung = tested on: NCI-H522 lung
SNB-75 CNS = tested on: SNB-75 CNS
COLO 205 colon = tested on: COLO 205 colon
SN12C renal = tested on: SN12C renal
K-562 leukemia = tested on: K-562 leukemia
OVCAR-5 ovarian = tested on: OVCAR-5 ovarian
MDA-MB-435 = tested on: MDA-MB-435
SK-MEL-2 melanoma = tested on: SK-MEL-2 melanoma
M14 melanoma = tested on: M14 melanoma
MOLT-4 leukemia = tested on: MOLT-4 leukemia
UO-31 renal = tested on: UO-31 renal
DU-145 prostate = tested on: DU-145 prostate
HT29 colon = tested on: HT29 colon
PC-3 prostate = tested on: PC-3 prostate
CCRF-CEM leukemia = tested on: CCRF-CEM leukemia
HCC-2998 colon = tested on: HCC-2998 colon
OVCAR-3 ovarian = tested on: OVCAR-3 ovarian

In the case of O=C(c1ccccc1)N(C(=S)NCCc1ccc(Cl)cc1)c1ccc(Cl)cc1, the GI50 (NCI-H226 lung) is reported as 16.7 µM, the TGI (NCI-H226 lung) is reported as 39.4 µM and the GI50 (NCI-H23 lung) is reported as 13 µM. It also gave a TGI (NCI-H23 lung) of 31.4 µM, a GI50 (SK-OV-3 ovarian) of 18.3 µM and a TGI (SK-OV-3 ovarian) of 32.8 µM. The GI50 (U251 CNS) was 4.38 µM, the TGI (U251 CNS) was 14.9 µM and the GI50 (UACC-257 melanoma) was 18.2 µM. It also gave a TGI (UACC-257 melanoma) of 34.6 µM, a GI50 (EKVX NSCLC) of 17.4 µM and a TGI (EKVX NSCLC) of 38.8 µM. It also gave a GI50 (A549 NSCLC) of 19.4 µM, a TGI (A549 NSCLC) of 49.9 µM and a GI50 (UACC-62 melanoma) of 11.4 µM. It also gave a TGI (UACC-62 melanoma) of 23.8 µM, a GI50 (SF-295 CNS) of 14.6 µM and a TGI (SF-295 CNS) of 31.9 µM. The GI50 (HL-60(TB) leukemia) was 6.77 µM, the TGI (HL-60(TB) leukemia) was over 100 µM and the GI50 (NCI/ADR-RES ovarian) was 16.2 µM. It also gave a TGI (NCI/ADR-RES ovarian) of 30.9 µM, a GI50 (LOX IMVI melanoma) of 2.4 µM and a TGI (LOX IMVI melanoma) of 5.3 µM. It also gave a GI50 (NCI-H522 lung) of 8.3 µM, a TGI (NCI-H522 lung) of 22.9 µM and a GI50 (SNB-75 CNS) of 13.5 µM. The TGI (SNB-75 CNS) was 27.9 µM, the GI50 (COLO 205 colon) was 6.83 µM and the TGI (COLO 205 colon) was 23.1 µM. The GI50 (SN12C renal) was 7.45 µM, the TGI (SN12C renal) was 20.7 µM and the GI50 (K-562 leukemia) was 74.6 µM. For the same compound, the TGI (K-562 leukemia) was over 100 µM, the GI50 (OVCAR-5 ovarian) was 19.6 µM and the TGI (OVCAR-5 ovarian) was 36.4 µM. It also gave a GI50 (MDA-MB-435) of 4.67 µM, a TGI (MDA-MB-435) of 20.4 µM and a GI50 (SK-MEL-2 melanoma) of 20.2 µM. It also gave a TGI (SK-MEL-2 melanoma) of 36.4 µM, a GI50 (M14 melanoma) of 8.42 µM and a TGI (M14 melanoma) of 25 µM. It also gave a GI50 (MOLT-4 leukemia) of 3.14 µM, a TGI (MOLT-4 leukemia) of over 100 µM and a GI50 (UO-31 renal) of 2.61 µM. For the same compound, the TGI (UO-31 renal) was 8.85 µM, the GI50 (DU-145 prostate) was 5.22 µM and the TGI (DU-145 prostate) was 16.7 µM. The GI50 (HT29 colon) was 5.3 µM, the TGI (HT29 colon) was 58.4 µM and the GI50 (PC-3 prostate) was 6.94 µM. The TGI (PC-3 prostate) was 26.2 µM, the GI50 (CCRF-CEM leukemia) was 2.59 µM and the TGI (CCRF-CEM leukemia) was 10.7 µM. For the same compound, the GI50 (HCC-2998 colon) was 8.54 µM, the TGI (HCC-2998 colon) was 22.6 µM and the GI50 (OVCAR-3 ovarian) was 3.75 µM.
